Data as given in patent US20030144346A1, “Methods and compositions for regulation of 5-alpha reductase activity” (priority 1997, published 2003).

Experiments:
[1] = biological target: T1, type 2 human 5α-reductase (HRED2) (Homo sapiens, UniProt P31213); assay: Whole cell assay of 5α-reductase, type 2 isoenzyme; type: cell-based; parameters: expressed in transfected cells; host or cells: rat 1A cells infected with pMV7 retrovirus; conditions: for IC50: Table 7, read-out: HCRED2 IC50;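 for all read-outs here: intact rat 1A cells genetically modified to carry human type 2 5α-reductase served as the enzyme source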
T1 sequence (P31213 1-254): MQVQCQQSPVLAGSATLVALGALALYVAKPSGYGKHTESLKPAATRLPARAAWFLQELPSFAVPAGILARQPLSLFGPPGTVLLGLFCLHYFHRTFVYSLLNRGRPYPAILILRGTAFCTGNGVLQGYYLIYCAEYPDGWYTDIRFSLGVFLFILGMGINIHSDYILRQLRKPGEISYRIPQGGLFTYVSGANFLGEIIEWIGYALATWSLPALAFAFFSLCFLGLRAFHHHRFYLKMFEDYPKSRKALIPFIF

[2] = biological target: T2, type 1 human 5α-reductase (HRED1) (Homo sapiens, UniProt P18405); assay: Cell free assay of 5α-reductase, microsomes of rat 1A cells expressing type 1 isoenzyme (HRED1); type: biochemical; parameters: expressed in transfected cells; host or cells: rat 1A cells infected with pMV7 retrovirus; microsomes; conditions: for HRED1 % Inhibition @ 100 μM: Table 5;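 for all read-outs here: microsomes from rat 1A cells expressing human type 1 5α-reductase, conversion of radiolabeled testosterone to dihydrotestosterone quantified by thin layer chromatography with radioanalytic scanning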
T2 sequence (P18405 1-259): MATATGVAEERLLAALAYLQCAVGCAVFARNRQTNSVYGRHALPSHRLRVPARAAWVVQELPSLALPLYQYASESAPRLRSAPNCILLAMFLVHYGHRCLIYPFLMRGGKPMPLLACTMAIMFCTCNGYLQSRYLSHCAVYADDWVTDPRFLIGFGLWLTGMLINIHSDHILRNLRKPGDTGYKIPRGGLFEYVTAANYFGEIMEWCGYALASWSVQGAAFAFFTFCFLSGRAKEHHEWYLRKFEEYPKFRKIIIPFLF

[3] = biological target: T2, type 1 human 5α-reductase (HRED1); assay: Whole cell assay of 5α-reductase, type 1 isoenzyme; type: cell-based; parameters: expressed in transfected cells; host or cells: rat 1A cells infected with pMV7 retrovirus;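 note: intact rat 1A cells engineered to express the human type 1 5α-reductase isozyme serve as the enzyme source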
[4] = biological target: T1, type 2 human 5α-reductase (HRED2); assay: Cell free assay of 5α-reductase, microsomes of rat 1A cells expressing type 2 isoenzyme (HRED2); type: biochemical; parameters: expressed in transfected cells; host or cells: rat 1A cells infected with pMV7 retrovirus; microsomes; conditions: for HRED2 % Inhibition @ 100 μM: Table 5;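 for all read-outs here: labeled testosterone and its product dihydrotestosterone measured in microsomal reaction extracts via thin layer chromatography plus radioanalytic scanning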
[5] = cell free assay, Table 5 epigallocatechin derivatives, read-out: HRED1 IC50
[6] = whole cell assay, Table 7, read-out: HCRED1 IC50
[7] = cell free assay, Table 5 epigallocatechin derivatives, read-out: HRED2 IC50
[8] = 100 uM, cell free assay, Table 1, read-out: HRED1 % Inhibition @ 100 uM
[9] = cell free assay, Table 1 flavanoids, read-out: HRED1 IC50
[10] = 100 uM, cell free assay, Table 1, read-out: HRED2 % Inhibition @ 100 uM
[11] = cell free assay, Table 1 flavanoids, read-out: HRED2 IC50
[12] = cell free assay, Table 2 catechols, read-out: HRED1 IC50
[13] = read-out: HRED1 % Inhibition @ 100 uM
[14] = cell free assay, Table 2 catechols, read-out: HRED2 IC50
[15] = read-out: HRED2 % Inhibition @ 100 uM
[16] = read-out: HRED1 % Inhibition @ 100 μM
[17] = read-out: HRED2 % Inhibition @ 100 μM
[18] = 100 uM, cell free assay, Table 2, read-out: HRED1 % Inhibition @ 100 uM
[19] = 100 uM, cell free assay, Table 2, read-out: HRED2 % Inhibition @ 100 uM
[20] = 100 uM, cell free assay, Table 2
[21] = 100 uM, cell free assay, Table 1

Compound | HRED2 % Inhibition @ 100 μM ([1]; Table 7) [%] | IC50 [1] [µM] | HRED1 % Inhibition @ 100 μM ([2]; cell free assay) [%] | IC50 [2, 5] [µM] | HRED1 % Inhibition @ 100 μM ([3]; whole cell assay, Table 7) [%] | IC50 [3, 6] [µM] | HRED2 % Inhibition @ 100 μM ([4]; cell free assay) [%] | IC50 [4, 7] [µM] | IC50 [2, 12] [µM] | IC50 [4, 14] [µM] | inhibition at 100 µM ([1]; Table 7) [%] | inhibition at 100 µM ([3]; whole cell assay, Table 7) [%] | also measured
CC(=O)OC1Cc2c(O)cc(O)cc2OC1c1cc(O)c(O)c(O)c1 (stereo not drawn) [HZIV 145] | 9 | > 100 | 35 | > 100 | 8 | > 100 | 8 | > 100 | – | – | – | – | –
O=c1c(O)c(-c2ccc(O)c(O)c2)oc2cc(O)cc(O)c12 [Quercitin] | – | > 100 | – | – | – | > 100 | – | – | – | – | 29 | 15 | inhibition at 100 µM [2, 8]: 96%; IC50 [2, 9]: 23 µM; IC50 ([2]; cell-free assay, read-out: IC50, type 1 isoenzyme): < 100 µM; inhibition at 100 µM [4, 10]: 14%; IC50 [4, 11]: > 100 µM
Oc1ccccc1O [Catechol] | – | > 100 | – | – | – | > 100 | – | – | > 100 | > 100 | 3 | 9 | inhibition at 100 µM [2, 13]: 5%; inhibition at 100 µM [4, 15]: 0%
CCCCCCCC/C=C\CCCCCCCC(=O)O [Oleic Acid, Oleic Acid C18:1 CIS 9] | – | > 100 | – | – | – | – | – | – | – | – | 45 | 58 | IC50 [2]: 10 µM; inhibition at 100 µM [2, 16]: 99%; IC50 ([3]; HCRED1 IC50, whole cell assay, Table 7): 83 µM; IC50 [4]: 42 µM; inhibition at 100 µM [4, 17]: 86%
COC(=O)c1cc(O)c(O)c(O)c1 [Methylgallate] | – | > 100 | – | – | – | > 100 | – | – | > 100 | > 100 | 0 | 0 | inhibition at 100 µM [2, 18]: 5%; inhibition at 100 µM [4, 19]: 3%
COc1cc(C(=O)C=Cc2ccc(N(C)C)cc2)cc(OC)c1OC [HZIV-82] | 15 | > 100 | – | – | 79 | 3 | – | – | > 100 | > 100 | – | – | HRED1 % Inhibition @ 100 uM [2, 20]: 43%; inhibitory activity against type 1 isoenzyme, in words ([2]; cell-free assay): little activity; inhibitory activity in the whole cell assay, type 1 isoenzyme, in words ([3]; whole cell assay): very active; HRED2 % Inhibition @ 100 uM [4, 20]: 0%
O=C(O[C@@H]1Cc2c(O)cc(O)cc2O[C@@H]1c1ccc(O)c(O)c1)c1cc(O)c(O)c(O)c1 [Epicatechin Gallate] | – | > 100 | – | – | – | > 100 | – | – | – | – | 0 | 0 | IC50 [2, 9]: 11 µM; inhibition at 100 µM [2, 13]: 100%; IC50 [4, 11]: 60 µM; inhibition at 100 µM [4, 15]: 83%
COc1cc(C(=O)OC2Cc3c(O)cc(O)cc3OC2c2cc(O)c(O)c(O)c2)cc(OC)c1OC (stereo not drawn) [HZIV 63] | 7 | > 100 | 94 | 311 | 12 | > 100 | 20 | > 100 | – | – | – | – | –
O=C(OC1Cc2c(O)cc(O)cc2OC1c1cc(O)c(O)c(O)c1)c1ccncc1 (stereo not drawn) [HZIV 107] | 2 | > 100 | 52 | 98 | 23 | > 100 | 39 | > 100 | – | – | – | – | –
CN(C)c1ccc(C(=O)OC2Cc3c(O)cc(O)cc3OC2c2cc(O)c(O)c(O)c2)cc1 (stereo not drawn) [HZIV 92] | 62 | 80 | 98 | 23 | 94 | 64 | 45 | > 100 | – | – | – | – | –
O=c1c(O)c(-c2ccc(O)cc2)oc2cc(O)cc(O)c12 [Kaempferol] | – | 20 | – | – | – | 79 | – | – | – | – | 85 | 60 | inhibitory activity in the whole cell assay, type 2 isoenzyme, in words [1]: significant inhibitory activity; inhibition at 100 µM [2, 8]: 22%; IC50 [2, 9]: > 100 µM; inhibition at 100 µM [4, 10]: 62%; IC50 [4, 11]: 12 µM
Oc1cccc(O)c1O [Pyrogallol] | – | > 100 | – | – | 5 | > 100 | – | – | 70 | > 100 | – | 7 | HRED2 % Inhibition @ 100 μM ([1]; Table 7, 100 µM): 6%; inhibition at 100 µM [2, 18]: 60%; inhibition at 100 µM [4, 19]: 28%
Oc1ccc2c(O)c3ccccc3cc2c1O [Anthrarobin] | – | > 100 | – | – | – | – | – | – | – | – | 31 | 91 | IC50 [2]: 4 µM; inhibition at 100 µM [2, 13]: 99%; inhibition at 100 µM [2, 16]: 99%; IC50 ([2]; read-out: HRED1 IC50, cell free assay, Table 4 quinones): 4 µM; IC50 [3]: 6 µM; inhibitory activity in the whole cell assay, type 1 isoenzyme, in words ([3]; whole cell assay): active; IC50 [4]: 50 µM; inhibition at 100 µM [4, 15]: 97%; inhibition at 100 µM [4, 17]: 97%; IC50 ([4]; read-out: HRED2 IC50, cell free assay, Table 4 quinones): 50 µM

Further lines, with some results ahead:

HRED2 % Inhibition @ 100 μM ([1]; Table 7) [%] | IC50 [1] [µM] | HRED1 % Inhibition @ 100 μM ([2]; cell free assay) [%] | IC50 [2, 5] [µM] | HRED1 % Inhibition @ 100 μM ([3]; whole cell assay, Table 7) [%] | IC50 [3, 6] [µM] | HRED2 % Inhibition @ 100 μM ([4]; cell free assay) [%] | IC50 [4, 7] [µM] | IC50 [2, 12] [µM] | IC50 [4, 14] [µM] | Compound | inhibition at 100 µM ([1]; Table 7) [%] | inhibition at 100 µM ([3]; whole cell assay, Table 7) [%] | also measured
– | 25 | – | – | – | 40 | – | – | – | – | CCCCC/C=C\C/C=C\CCCCCCCC(=O)O [Linoleic Acid, Linoleic Acid C18:2 CIS 9,12] | – | – | IC50 ([2]; cell free assay, Table 6 fatty acids, read-out: HRED1 IC50): 9 µM; IC50 ([4]; cell free assay, Table 6 fatty acids, read-out: HRED2 IC50): 19 µM
– | > 100 | – | – | – | > 100 | – | – | > 100 | > 100 | CCCOC(=O)c1cc(O)c(O)c(O)c1 [Propylgallate] | 0 | 5 | inhibition at 100 µM [2, 18]: 0%; inhibition at 100 µM [4, 19]: 0%
81 | 74 | 31 | > 100 | 90 | 42 | 0 | > 100 | – | – | CCCCCCCCCCCCCCCCCC(=O)OC1Cc2c(O)cc(O)cc2OC1c1cc(O)c(O)c(O)c1 (stereo not drawn) [HZIV 148] | – | – | –
72 | 62 | 97 | 29 | 83 | 43 | 21 | > 100 | – | – | COc1cc(C(=O)OC2Cc3c(O)cc(O)cc3OC2c2cc(O)c(O)c(O)c2)cc(OC)c1O (stereo not drawn) [HZIV 75] | – | – | –
– | 7 | – | – | – | 3 | – | – | 43 | > 100 | CCCCCCCCCCCCOC(=O)c1cc(O)c(O)c(O)c1 [Dodecylgallate] | 98 | 99 | inhibition at 100 µM [2, 18]: 88%; inhibitory activity in the whole cell assay, type 1 isoenzyme, in words ([3]; whole cell assay): active; inhibition at 100 µM [4, 19]: 36%
93 | 5 | – | – | 64 | 64 | – | – | – | – | COc1ccc(-c2coc3cc(O)cc(O)c3c2=O)cc1 [Biochanin a] | – | – | inhibitory activity in the whole cell assay, type 2 isoenzyme, in words [1]: significant inhibitory activity; HRED1 % Inhibition @ 100 uM [2, 21]: 50%; IC50 [2, 9]: > 100 µM; HRED2 % Inhibition @ 100 uM [4, 21]: 74%; IC50 [4, 11]: 17 µM; inhibitory activity against type 2 isoenzyme, in words ([4]; cell-free assay): effective inhibitors
– | 18 | – | – | – | 7 | – | – | 27 | 58 | CCCCCCCCOC(=O)c1cc(O)c(O)c(O)c1 [Octyl Gallate] | 94 | 99 | inhibition at 100 µM [2, 18]: 99%; inhibitory activity in the whole cell assay, type 1 isoenzyme, in words ([3]; whole cell assay): active; inhibition at 100 µM [4, 19]: 90%
– | 7 | – | – | – | 8 | – | – | 26 | > 100 | O=C(/C=C/c1ccc(O)c(O)c1)OCCc1ccccc1 [Caffeic Acid Phenethyl Ester] | – | – | inhibitory activity in the whole cell assay, type 1 isoenzyme, in words ([3]; whole cell assay): active
7 | > 100 | 88 | 49 | 12 | > 100 | 38 | > 100 | – | – | O=C(OC1Cc2c(O)cc(O)cc2OC1c1cc(O)c(O)c(O)c1)C1CCCCC1 (stereo not drawn) [HZIV 144] | – | – | –
